Source: patent US9006454B2, “Dihydroorotate dehydrogenase inhibitors” (Merck Serono S.A., priority 2009, dated 2015)

Key:
DHODH = DHODH (Homo sapiens (Human), UniProt Q02127); experiment: DHODH activity assay (coupled enzyme assay, DCIP reduction, absorbance at 610 nm); assay type: biochemical; conditions: for inhibition at 10 µM / inh @ 10 uM hDHODH (%): compound at 10 uM; for inhibition at 10 µM: read-out: inh @ 10 uM hDHODH (%)
Protocol: The DHODH activity assay is a coupled enzyme assay in which oxidation of DHO and subsequent reduction of ubiquinone are stoichiometrically equivalent to the reduction of DCIP ([…]). The reduction of DCIP is accompanied by a loss of absorbance at 610 nm.
Buffer Preparation: 50 mM tris HCl, 150 mM KCl, and pH 8.0, 0.8% triton.
5 μL of Dimethyl sulfoxide or a compound of formula I in DMSO solution was added to the wells of a 96 well plate. Compounds of formula I were measured at 10 μM.
Protein along with buffer was added, so that the total volume including the DMSO was 87 μL. Compound and protein were incubated for half an hour at room temperature after mixing. 5 μL of 20 mM solution of L-Dihydroorotic acid, 5 μL of 2 mM solution of Decylubiquinone and 3 μL of 2 mM solution of 2,6-Dichloroindophenol sodium salt hydrate were added to the above solution (total assay volume 100 μL). The mixture was stirred for 2 min and absorbance was recorded at every 10 min at 610 nanometers.
Percent Inhibition is Calculated as Follows
Positive control contains DMSO, buffer, enzyme and substrates
No Enzyme reaction contains DMSO, buffer and substrates
IC50 determination: • A 2 mM DMSO stock of the compound of formula I to be examined was prepared. ⅓rd dilutions were made as follows:
5 μL of each stock of compound of formula I (solution indicated in column 4 of table) was used for each 100 μL assay. Therefore, 5 μL of the 2 mM stock provided 100 μL of 100 μM solution of compound of formula I, when made up with buffer, protein and substrate. See also: Ulrich et al. (2001) Eur. J. Biochem. 268, 1861-1868.

Jurkat cells = experiment: Measurement of cell proliferation (Jurkat cell), XTT assay; assay type: cell-based; conditions: for inhibition at 1 µM: compound at 1 uM, read-out: % inh Jurkat_cells @ 1 uM (%); for EC50: XTT cell viability
Protocol: See also Roehm, N et al [1991] An improved colorimetric assay for cell proliferation and viability utilizing the tetrazolium salt XTT. J. Immunol. Methods 142:257-265.
Culture Jurkat cells in T-25 flasks at a density of 0.2×10^6/ml 2-3 days before the day of experiment set up.
Centrifuge Jurkat T-cell suspension at 1200 rpm for 10 minutes and resuspend cells again in fresh RPMI medium with 10% FBS.
Count the cells and dilute suspension to a density of 2×10^6 cells/ml. Seed 50 μL of this suspension in each well of a 96 well plate (100,000 cells per well). Keep the edges of the plate empty to avoid evaporation.
Serially dilute DMSO stocks of compounds to get different concentrations for an EC50 curve. 50 μL of compound diluted in media (2× concentration required in well) is added to each well. DMSO concentration should be kept constant at 0.25-0.5% for all wells.
Typically, for all compounds with IC50<1 μM, compound concentration can start at 10 μM followed by half log dilutions for a total of 8-10 concentrations. Each concentration has to be tested in triplicate.
Include controls such as cells without compound (with same DMSO concentration as compound wells), and media control
Incubate the 96 well plate in a CO2 incubator at 37° C. for 72 hrs before determining cell viability using XTT assay
XTT assay: to each well, add 50 μL of 1 mg/ml XTT solution with 20 μl of PMS/mL. Read the plates after 2 hours at 465 nm using the spectrophotometer. XTT reading for media without cells is used as background reading.
Calculate % cell viability assuming that the cells without compound are 100% viable.
Plot % cell viability as a function of concentration and determine EC50 by using software such as Graph Pad Prism to fit the curve.

Chain of DHODH (Q02127 whole entry): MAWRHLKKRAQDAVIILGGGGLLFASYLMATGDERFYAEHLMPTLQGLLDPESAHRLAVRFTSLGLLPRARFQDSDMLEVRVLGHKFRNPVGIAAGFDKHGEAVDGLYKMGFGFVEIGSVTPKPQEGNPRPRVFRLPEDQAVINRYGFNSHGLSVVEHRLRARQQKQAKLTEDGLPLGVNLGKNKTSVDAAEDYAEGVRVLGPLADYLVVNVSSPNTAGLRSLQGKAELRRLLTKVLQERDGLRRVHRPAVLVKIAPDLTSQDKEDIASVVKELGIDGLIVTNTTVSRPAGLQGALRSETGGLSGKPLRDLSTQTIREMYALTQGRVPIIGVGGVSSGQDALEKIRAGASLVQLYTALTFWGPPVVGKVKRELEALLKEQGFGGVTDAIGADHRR

Compound | inhibition at 10 µM (DHODH) [%] | inhibition at 1 µM (Jurkat cells; Homo sapiens, Jurkat) [%] | IC50 (DHODH) [µM] | EC50 (Jurkat cells; Homo sapiens, Jurkat, 72 h) [µM] | inh @ 10 uM hDHODH (%) (DHODH) | EC50 (Jurkat cells; 72 hrs) [µM]
O=C(O)c1cc(F)cc2nc(-c3ccc(-c4ccccc4)cc3F)[nH]c12 [Example 29, 6-Fluoro-2-(3-fluoro-biphenyl-4-yl)-3H-benzoimidazole-4-carboxylic acid] | 93.4 | 71.6 |  |  |  | 
O=C(O)c1cccc2[nH]c(-c3ccc(-c4ccccc4)cc3)nc12 [I1] | 93.9 |  | 0.795 | 0.645 |  | 
O=C(O)c1cccc2[nH]c(-c3ccc(OCc4ccccc4)cc3)nc12 [I2] | 66.1 |  | 4.95 |  |  | 
COc1cccc(-c2ccc(-c3nc4c(C(=O)O)cccc4[nH]3)c(F)c2)c1 [I3] |  |  | 0.616 |  | 92.6 | 0.753
COc1cccc(-c2ccc(-c3nc4c(C(=O)O)cccc4[nH]3)c(F)c2)c1 [I4] |  |  |  |  | 2.1 | 
COc1cccc(-c2ccc(-c3nc4c(C(=O)O)cccc4[nH]3)c(F)c2)c1 [I5] |  |  | 0.368 |  | 94.3 | 0.356
O=C(O)c1cc(Br)cc2[nH]c(-c3ccc(-c4ccccc4)cc3)nc12 [I6] | 96.7 |  | 0.574 | 0.388 |  | 
Cn1c(-c2ccc(-c3ccccc3)cc2)nc2c(C(=O)O)cccc21 [I7] | 30.2 |  |  |  |  | 
Cn1c(-c2ccc(-c3ccccc3)cc2)nc2cccc(C(=O)O)c21 [I8] | 90.5 |  | 1.6 |  |  | 
O=C(O)c1cccc2[nH]c(-c3cccc(Oc4ccccc4)c3)nc12 [I9] | 64 | 20 | 7.2 |  |  | 
O=C(O)c1cccc2[nH]c(-c3ccc(Oc4ccccc4)cc3)nc12 [I10] | 80.3 | 35.1 | 2.87 |  |  | 
COc1cccc(-c2ccc(-c3nc4c(C(=O)O)cccc4[nH]3)cc2)c1 [I11] | 13.7 | 9.4 |  |  |  | 
Cc1ccc(-c2ccc(-c3nc4c(C(=O)O)cccc4[nH]3)cc2)cc1 [I12] | 9 |  |  |  |  | 
O=C(O)c1cccc2[nH]c(-c3ccc(-c4ccc(C(F)(F)F)cc4)cc3)nc12 [I13] | 10.6 |  |  |  |  | 
Cc1cc(C(=O)O)c2nc(-c3ccc(-c4ccccc4)cc3)[nH]c2c1 [I14] | 102 | 76.9 | 0.304 | 0.263 |  | 
O=C(O)c1cccc2[nH]c(-c3ccc(-c4ccccc4F)cc3)nc12 [I15] | 96.4 | 64.4 | 0.49 |  |  | 
O=C(O)c1cccc2[nH]c(-c3ccc(-c4ccc(OC(F)(F)F)cc4)cc3)nc12 [I16] | 39.9 | 18 |  |  |  | 
O=C(O)c1cccc2[nH]c(-c3ccc(-c4cccc(F)c4)cc3)nc12 [I17] | 65.2 | 23.5 | 3.79 |  |  | 
O=C(O)c1cccc2[nH]c(-c3ccc(-c4cccc(OC(F)(F)F)c4)cc3)nc12 [I18] | 89 | 43.1 | 1.26 |  |  | 
O=C(O)c1cccc2nc(-c3ccc(-c4ccccc4)cc3)oc12 [I19] | 80.1 | 34.3 | 3.03 |  |  | 
COc1cc(-c2nc3c(C(=O)O)cccc3[nH]2)cc(OC)c1-c1ccccc1 [I20] | 93.2 | 67.1 | 0.975 | 1 |  | 

Compound | inhibition at 10 µM (DHODH) [%] | inhibition at 1 µM (Jurkat cells; Homo sapiens, Jurkat) [%] | IC50 (DHODH) [µM] | EC50 (Jurkat cells; Homo sapiens, Jurkat, 72 h) [µM] | inh @ 10 uM hDHODH (%) (DHODH) | EC50 (Jurkat cells; 72 hrs) [µM]
O=C(O)c1cccc2[nH]c(-c3c(F)c(F)c(-c4ccccc4)c(F)c3F)nc12 [I21] | 97.3 | 92.4 | 0.038 | 0.238 |  | 
O=C(O)c1cccc2[nH]c(-c3ccc(-c4ccsc4)cc3)nc12 [I22] | 57.3 | 15.3 |  |  |  | 
Cc1cc(C(=O)O)c2nc(-c3ccc(-c4ccsc4)cc3)[nH]c2c1 [I23] | 77.8 | 33.9 |  |  |  | 
O=C(O)c1cccc2nc(-c3ccc(-c4ccccc4F)cc3F)[nH]c12 [I24] | 86.7 | 53.2 | 0.965 |  |  | 
Cc1cc(C(=O)O)c2[nH]c(-c3ccc(-c4ccccc4F)cc3F)nc2c1 [I25] | 94 | 82 | 0.172 | 0.098 |  | 
Cc1cc(C(=O)O)c2[nH]c(-c3ccc(-c4ccccc4F)cc3)nc2c1 [I26] | 93.9 | 75.9 | 0.373 | 0.105 |  | 
O=C(O)c1cccc2nc(-c3ccc(-c4ccccc4)cc3F)[nH]c12 [I27] | 86.2 | 57.1 | 0.922 |  |  | 
Cc1cc(C(=O)O)c2[nH]c(-c3ccc(-c4ccccc4)cc3F)nc2c1 [I28] | 96.3 | 75.4 | 0.403 | 0.206 |  | 
O=C(O)c1cccc2nc(-c3ccc(-c4ccc(F)cc4F)cc3F)[nH]c12 [I30] | 68.1 | 31.5 |  |  |  | 
Cc1cc(C(=O)O)c2[nH]c(-c3ccc(-c4ccc(F)cc4F)cc3F)nc2c1 [I31] | 92.7 | 55.5 | 1.01 |  |  | 
O=C(O)c1cccc2nc(-c3ccc(-c4ccc(F)cc4F)cc3)[nH]c12 [I32] | 69.6 | 21.1 |  |  |  | 
Cc1cc(C(=O)O)c2[nH]c(-c3c[nH]c4ccccc34)nc2c1 [I42] | 7.1 |  |  |  |  | 
FC(F)(F)c1cccc2[nH]c(-c3ccc(-c4ccccc4)cc3)nc12 [I43] | 5.6 |  |  |  |  | 
O=C(O)c1cccc2nc(-c3ccc(N4CCOCC4)cc3)[nH]c12 [I62] | 8.4 |  |  |  |  | 
Cc1nc(-c2ccc(-c3nc4cccc(C(=O)O)c4[nH]3)cc2)oc1C [I66] | 8.4 |  |  |  |  | 
COC(=O)c1cccc2nc(-c3ccc(-c4ccccc4)cc3)[nH]c12 [I79, 2-Biphenyl-4-yl-1H-benzoimidazole-4-carboxylic acid methyl ester] | 5.3 |  |  |  |  | 
Cc1cc(C(=O)O)c2nc(-c3ccc(N4CCCCCC4=O)cc3)[nH]c2c1 [I80, 6-Methyl-2-[4-(2-oxo-azepan-1-yl)-phenyl]-1H-benzoimidazole-4-carboxylic acid] | 9.4 |  |  |  |  | 
Cc1cc(C(=O)O)c2nc(C#Cc3ccccc3)[nH]c2c1 [I84, 6-Methyl-2-phenylethynyl-1H-benzoimidazole-4-carboxylic acid] | 59.5 |  |  |  |  | 
Cc1cc(C(=O)O)c2nc(-c3c(F)c(F)c(-c4ccccc4)c(F)c3F)n(C)c2c1 [I113] | 95 |  | 0.116 |  |  | 
Cc1cc(C(=O)O)c2nc(-c3ccc(-c4cnccn4)cc3)[nH]c2c1 [I147] | 44.3 |  | 8.45 |  |  | 
